This is an account of results in patent US20240376055A1, “INHIBITORS OF TRANSGLUTAMINASES” (Zedira GmbH, priority 2021, published 2024).

For orientation: Papp means the rate of passage across a membrane or cell layer, normalised by area and donor concentration. What is called IC50 is the concentration that inhibits the measured activity by half. One may read the logD as the decadic logarithm of the distribution of all forms, ionised or not, between an organic phase and buffer at a given pH. Lower therefore signals lower lipophilicity.

Data set [1] addresses T1, recombinant human transglutaminase 2 (Homo sapiens, UniProt P21980).
T1 construct: purchased Zedira T022
T1 sequence (P21980 1-687): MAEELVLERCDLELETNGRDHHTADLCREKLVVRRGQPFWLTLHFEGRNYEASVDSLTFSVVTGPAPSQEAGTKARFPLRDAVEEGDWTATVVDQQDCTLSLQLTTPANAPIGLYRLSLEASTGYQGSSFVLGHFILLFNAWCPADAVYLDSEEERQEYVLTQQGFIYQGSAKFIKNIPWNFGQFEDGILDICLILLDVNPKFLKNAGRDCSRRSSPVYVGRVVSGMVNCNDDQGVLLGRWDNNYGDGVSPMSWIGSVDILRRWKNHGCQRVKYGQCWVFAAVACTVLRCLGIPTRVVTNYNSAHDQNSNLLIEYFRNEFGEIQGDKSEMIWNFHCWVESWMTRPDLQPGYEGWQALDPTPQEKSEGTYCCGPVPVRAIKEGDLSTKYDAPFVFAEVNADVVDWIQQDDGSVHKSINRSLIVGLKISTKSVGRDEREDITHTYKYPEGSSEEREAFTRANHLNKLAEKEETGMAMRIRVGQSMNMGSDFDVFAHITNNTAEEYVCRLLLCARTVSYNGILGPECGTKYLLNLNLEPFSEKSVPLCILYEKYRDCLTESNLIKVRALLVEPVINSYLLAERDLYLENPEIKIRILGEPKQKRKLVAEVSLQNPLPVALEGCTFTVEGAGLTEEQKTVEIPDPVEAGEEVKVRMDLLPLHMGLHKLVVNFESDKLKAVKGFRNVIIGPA
In words: Transglutaminase assay (DCC-assay: dansylcadaverine incorporation into dimethylcasein). Format: biochemical. The settings on record: for IC50: 10 nM TG2, 37° C., slope 20-30 min. As to the method: To illustrate the advantage of branched alkyl moieties over aromatic moieties, we refer to reference compounds Ref. 2 (ZED1227, U.S. Pat. No. 9,434,763 B2) and Ref. 3 (A8, ZED1047). Inhibition data were determined using the classical fluorescent transamidation assay (dansylcadaverine incorporation into methylated casein, DCC-assay) as described [Büchold, C.; Hils, M.; Gerlach, U.; Weber, J.; Pelzer, C.; Heil, A.; Aeschlimann, D.; Pasternack, R. Features of ZED1227: The First-In-Class Tissue Transglutaminase Inhibitor Undergoing Clinical Evaluation for the Treatment of Celiac Disease. Cells 2022, 11, 1667. https://doi.org/10.3390/cells11101667]. Casein is one of the best known high molecular weight (24 kDa) protein substrates for transglutaminases. Please note, the IC50 value of Ref. 3 (A8) published in U.S. Pat. No. 9,434,763 B2 cannot be compared to the present data, relying on a fluorogenic isopeptidase assay.
To this extent, inhibition data were determined using the classical fluorescent transamidation assay (dansylcadaverine incorporation into methylated casein, DCC-assay) as described in Büchold et al. [Buchold, C.; Hils, M.; Gerlach, U.; Weber, J.; Pelzer, C.; Heil, A.; Aeschlimann, D.; Pasternack, R. Features of ZED1227: The First-In-Class Tissue Transglutaminase Inhibitor Undergoing Clinical Evaluation for the Treatment of Celiac Disease. Cells 2022, 11, 1667. https://doi.org/10.3390/cells11101667]. Casein is one of the best known high molecular weight (24 kDa) protein substrates for transglutaminases. Inhibition data of the inventive compounds was compared with inhibition of compounds disclosed in U.S. Pat. No. 9,434,763 B2, particularly, compound A8, which is denoted herein as Reference 3. It is noteworthy that the IC50 values of compounds A8 published in U.S. Pat. No. 9,434,763 B2 and E16 from U.S. Pat. No. 11,072,634 B2 cannot be compared to the present data, relying on a fluorogenic isopeptidase assay.
For the determination of potency of inhibitors against tissue transglutaminase, the incorporation of dansylcadaverine into dimethylcasein (Zedira product T036, Lorand et al., Anal Biochem, 1971, 44:221-31) was measured using recombinant human transglutaminase 2 (Zedira Product T022).
The tissue transglutaminase is diluted in buffer (50 mM Tris-HCl, 7.5 mM CaCl2), 150 mM NaCl, pH=7.4). The final concentration of TG2 in the assay is 10 nM. A 10 mM inhibitor stock solution is prepared in DMSO, and from this a serial 1:2-fold dilution series is prepared also in DMSO. […]
Increase in fluorescence is measured using λex=330 nm and λem=500 nm at 37° C. for 30 min. […]
Analysis of enzymatic activity is performed by calculation of the slope of an increase in fluorescence intensity. […]

Data set [2] can be described thus: Caco-2 permeability assay (CacoReady kit). The settings on record: human; Caco-2 barrier. Format: in vitro ADME. As to the method: Permeability coefficients (Papp values) were obtained from Caco-2 barrier studies predicting oral/intestinal bioavailability of the tested compounds. The assays were performed by using CacoReady™ ready-to-use kits from ReadyCell according to the manufacturers protocol.
A general note: Caco-2 cells form a polarised layer with tight junctions and transporters.

Data set [3] can be described thus: Log D by shake flask method (octanol / PBS pH 7.4, HPLC). Format: physicochemical. The conditions noted are these: octanol/phosphate-buffered saline; octanol / PBS pH 7.4, shake flask. As to the method:
In order to classify the inventive compounds according to their lipophilicity, Log D values (distribution coefficient) were determined by means of the well-established shake flask method, measuring the partition of a compound between an octanol and phosphate-buffered saline (PBS, pH 7.4) by HPLC.
Compounds with a moderate lipophilicity (Log D values from 0 to 3) are usually advantaged for oral absorption, being in balance between solubility and permeability. However, sophisticated formulation of a compound might improve oral bioavailability for highly lipophilic compounds.

`CCC(CC)CNC(=O)Cn1cccc(NC(=O)[C@H](CC/C=C/C(=O)OC)NC(=O)c2cncn2C)c1=O` [Ref. 2, reference compound]: in data set [1] (DCC-assay, compared to Ref. 3 (A8)), the “fold more potent compared to Ref. 3” value turned out to be 80 fold.
Take `CCNC(=O)C(=O)CC[C@H](NC(=O)c1ccn(C)n1)C(=O)Nc1cccn(CC(=O)N[C@]23C[C@H]4C5CC6CC4[C@H](C2)C(C6)[C@H]5C3)c1=O` (single isomer, unassigned) [Compound I-80]: the Papp in data set [2] is < 1 ×10⁻⁶ cm/s. For the same molecule, in data set [1], the concentration for half-maximal inhibition (IC50) lay within 0.15 to 0.6 µM. Moreover, the logD in data set [3] was 1 to 3.
On to `CCC(CC)CNC(=O)Cn1cccc(NC(=O)[C@H](CCC(=O)C(=O)NC)NC(=O)c2cncn2C)c1=O` [Ref. 1, reference compound], for which the “fold more potent compared to Ref. 4” value in data set [1] (compared to Ref. 4, table 1) is on record as “about 15 fold”.
In turn, `CCNC(=O)C(=O)CC[C@H](NC(=O)c1ncc(OC)o1)C(=O)Nc1cccn(CCC(=O)NC2C3CC4CC(C3)CC2C4)c1=O` (stereo partly drawn) [Compound I-87, (S)-N1-(1-(3-(2-adamantylamino)-3-oxopropyl)-2-oxo-1,2-dihydropyridin-3-yl)-N6-ethyl-2-(5-methoxyoxazole-2-carboxamido)-5-oxohexanediamide] returned a Papp in data set [2] of 1 to 10 ×10⁻⁶ cm/s. Also, the IC50 in data set [1] was 0.6 to 3.5 µM. Moreover, the logD in data set [3] lay within 1 to 3.
